Results reported in patent US6809085B1, “Adherent N,O-Carboxymethylchitosan drug delivery devices for moist tissue and methods of their use” (Chitogenics, Inc., priority 1999, dated 2004).
Structures can show the parent of a compound that is named as a salt. Where two headings read alike, the source gives them in different places. Blank lines part the entries; values can stand above or below the compound they belong to.

Type: in vitro ADME, rabbit
Method: Previously harvested pieces of rabbit large bowel (surface area 1.767 cm^2) were mounted in an Improved Franz Diffusion Cell containing 0.9% saline (13ml) as the receptor medium. The vaginal cream of Example 3 (1.0 g) was applied directly to the rabbit tissue; the experiments were performed in triplicate.
Aliquots of 1.0 ml (which were replaced with fresh saline solution) were withdrawn from the receptor chamber at 1, 3, 6, 20, 24, 48 hours. LN in samples was quantified using high performance liquid chromatography (Hewlett Packard, model 1090,series II, fitted with Hypersil C18, 5 μm, 25 cm×4.6 mm column, a UV detector set at 241 nm and an acetonitrile(80%)-water(20%) mobile phase).
Accurately weighed portions of the LN-vaginal cream as well as the cream recovered from the diffusion cells were extracted with 20 ml methanol for 16 hr on a wrist-action shaker and analyzed. […] The replicate results along with an average are plotted.
The permeation studies were conducted as described in Example 12 except that the HPLC analysis was modified; a Spectra Physics, Model SP8800, fitted with Alltima phenyl, 5 micron, 15 cm×4.6 mm column, and a UV detector set at 223 nm was used with an acetonitrile (40%)-0.1% phosphoric acid mobile phase. […]

average permeation rate through the mucosal tissue: 160.8 μg/cm^2/hr
SMILES: CC(=O)O.CC(=O)O.NC(=N\CCCCCC/N=C(N)/N=C(\N)Nc1ccc(Cl)cc1)/N=C(\N)Nc1ccc(Cl)cc1 [chlorhexidine diacetate]

average permeation rate through the mucosal tissue (rabbit, 48 h, 5 mg per pellet): 97.3 μg/cm^2/hr | average permeation rate through the mucosal tissue (rabbit, 48 h, 10 mg per pellet): 182 μg/cm^2/hr
SMILES: CN(C)CCC(c1ccc(Cl)cc1)c1ccccn1 (stereo not shown) [chlorpheniramine maleate]

concentration of LN in the cream recovered following the permeation study: 3.101 ± 0.315 mg/g | amount of levonorgestrel released through normal tissue (rabbit, 48 h, 3 mg/g): less than 0.5% | permeation rate of hormone that diffused through the tissue from the cream (rabbit, 48 h, 3 mg/g): 0.163±0.010 μg/cm^2/hr
SMILES: C#C[C@]1(O)CC[C@H]2[C@@H]3CCC4=CC(=O)CC[C@@H]4[C@H]3CC[C@@]21CC [levonorgestrel]

average permeation rate through the mucosal tissue (rabbit, 24 h): 103.8 μg/cm^2/hr
SMILES: CC(C)(C)NC[C@H](O)COc1nsnc1N1CCOCC1 [timolol maleate]
